Consider 9 compounds from patent publication US8247595B2, “Organic sulfur compound and its use for controlling harmful arthropod” (Sumitomo Chemical Company, Limited, priority 2007, dated 2012).

Common to all, as to assay type: in vivo
In one experiment the test system is Culex pipiens pallens. Nature of the experiment: Test Example 4: larvae released into treated water, death rate of Culex pipiens pallens. The conditions noted are these: 24 h, active ingredient concentration 3.5 ppm in water, 20 last-instar larvae, after one day. On the procedure: Preparations of the present compounds (1), (2), (3), (4), (5), (6), (7), (13), (14), (15), (16), (18), (22), (23), (24), (25), (26), (27), (28), (29), (30), (31), (32), (33), (34), (35), (36), (38) and (39) obtained according to Formulation Example 44 were diluted so that the active ingredient concentration was 500 ppm to obtain test solutions.
To 100 mL of ion-exchanged water, 0.7 ml of the test solution was added (active ingredient concentration: 3.5 ppm). Into the solution, 20 last-instar larvae of Culex pipiens pallens were released. After one day, the number of surviving Culex pipiens pallens was examined and the death rate of the pest was calculated.
As a result, in treatments with the present compounds (1), (2), (3), (4), (5), (6), (7), (13), (14), (15), (16), (18), (22), (23), (24), (25), (26), (27), (28), (29), (30), (31), (32), (33), (34), (35), (36), (38) and (39), the death rate of the pest was 90% or more.

The subject of the next experiment is Blattalla germanica. Nature of the experiment: Test Example 3: treated filter paper with sucrose bait, death rate of Blattalla germanica. The settings on record: 144 h; 500 ppm test solution, 0.7 ml on filter paper; 2 male imagoes; after 6 days. On the procedure: Preparations of the present compounds (3), (4), (5), (6), (7), (9), (10), (13), (23), (24), (25), (26), (27), (28), (29), (30), (31), (32), (33), (34), (35), (38) and (39) obtained according to Formulation Example 44 were diluted so that the active ingredient concentration was 500 ppm to obtain test solutions.
A filter paper having a diameter of 5.5 cm was spread on the bottom of a polyethylene cup having a diameter of 5.5 cm and 0.7 ml of the test solution was added dropwise onto the filter paper. As a bait 30 mg of sucrose was uniformly placed on the filter paper. Into the polyethylene cup, 2 male imagoes of Blattalla germanica were released and the cup was sealed with a lid. After 6 days, the number of surviving Blattalla germanica was examined and the death rate of the pest was calculated.
As a result, in treatments with the present compounds (3), (4), (5), (6), (7), (9), (10), (13), (23), (24), (25), (26), (27), (28), (29), (30), (31), (32), (33), (34), (35), (38) and (39), the death rate of the pest was 100%.

Another experiment concerns Musca domestica. Nature of the experiment: Test Example 2: treated filter paper with sucrose bait, death rate of Musca domestica. The conditions noted are these: 500 ppm test solution, 0.7 ml on filter paper, 10 female imagoes, after 24 hours. The procedure:
Preparations of the present compounds (1), (2), (3), (4), (5), (6), (7), (8), (9), (10), (13), (18), (23), (24), (25), (26), (27), (28), (29), (30), (31), (32), (33), (34), (35), (38) and (39) obtained according to Formulation Example 44 were diluted so that the active ingredient concentration was 500 ppm to obtain test solutions.
A filter paper having a diameter of 5.5 cm was spread on the bottom of a polyethylene cup having a diameter of 5.5 cm and 0.7 ml of the test solution was added dropwise onto the filter paper. As a bait 30 mg of sucrose was uniformly placed on the filter paper. Into the polyethylene cup, 10 female imagoes of Musca domestica were released and the cup was sealed with a lid. After 24 hours, the number of surviving Musca domestica was examined and the death rate of the pest was calculated.
As a result, in treatments with the present compounds (1), (2), (3), (4), (5), (6), (7), (8), (9), (10), (13), (18), (23), (24), (25), (26), (27), (28), (29), (30), (31), (32), (33), (34), (35), (38) and (39), the death rate of the pest was 70% or more.

The test system of experiment [1] is Haemaphysalis longicornis. Nature of the experiment: Test Example 5: treated filter paper pouch, death rate of ticks. The settings on record: 48 h, filter paper treated with 100 mg/m^2, non-blood-sucking nymphal ticks, 10 ticks/group, after 2 days, read-out: death rate of the tick. On the procedure: Five milligrams of any one of the present compounds (19), (23), (24), (27), (28), (29), (32), (33), (35), (38) and (39) was dissolved in 10 mL of acetone. One milliliter of the acetone solution was uniformly applied on one side of a filter paper (TOYO No. 2; 5×10 cm), so that the filter paper was treated with 100 mg/m^2 of the present compound. After drying, the filter paper was folded in two and its edges were clipped to make a pouch. Non-blood-sucking nymphal ticks (Haemaphysalis longicornis, 10 ticks/group) were put into the pouch, and the pouch was sealed with clips. After 2 days, the number of surviving ticks was examined and the death rate was calculated.
As a result, in treatments with the present compounds (19), (23), (24), (27), (28), (29), (32), (33), (35), (38) and (39), the death rate of the tick was 90%.

Consider `C#CCCCCCC(C#N)S(=O)(=O)CCC(F)(F)F` (stereo not drawn) [present compound (24), 2-(3,3,3-trifluoropropylsulfonyl)-8-nonynenitrile], for which, in the experiment on Culex pipiens pallens, the pest or weed control at 3.5 ppm was not below 90%. In addition, the pest or weed control at 500 ppm was 100% in the experiment on Blattalla germanica and not below 70% in the experiment with Musca domestica. Moreover, the pest or weed control at 100 mg/m2 in experiment [1] amounted to 90%.

`C#CCC(C)CCC(C#N)S(=O)(=O)CCC(F)(F)F` (stereo not drawn) [present compound (27), 5-methyl-2-(3,3,3-trifluoropropylsulfonyl)-7-octynenitrile]: the pest or weed control at 3.5 ppm with Culex pipiens pallens is not below 90%. Moreover, the pest or weed control at 500 ppm with Blattalla germanica is 100%; in the experiment on Musca domestica it was not below 70%. In addition, the pest or weed control at 100 mg/m2 in experiment [1] was 90%.

In the case of `C#CC(C)CCCC(C#N)S(=O)(=O)CCC(F)(F)F` (stereo not drawn) [present compound (28), 6-methyl-2-(3,3,3-trifluoropropylsulfonyl)-7-octynenitrile], the pest or weed control at 3.5 ppm with Culex pipiens pallens is not below 90%. For the same compound, the values for the pest or weed control at 500 ppm with Blattalla germanica and in the experiment with Musca domestica were 100% and not below 70%, respectively. For the same compound, the pest or weed control at 100 mg/m2 in experiment [1] was 90%.

As to `C#CCC(CC)CCC(C#N)S(=O)(=O)CCC(F)(F)F` (stereo not drawn) [present compound (29), 5-ethyl-2-(3,3,3-trifluoropropylsulfonyl)-7-octynenitrile], the pest or weed control at 3.5 ppm with Culex pipiens pallens was not below 90%. Besides, the pest or weed control at 500 ppm in the experiment on Blattalla germanica is 100%; with Musca domestica, not below 70%. In addition, the pest or weed control at 100 mg/m2 in experiment [1] was determined as 90%.

Regarding `C#CCC(CC)CCC(Cl)(C(N)=O)S(=O)(=O)CCC(F)(F)F` (stereo not drawn) [present compound (32), 2-chloro-5-ethyl-2-(3,3,3-trifluoropropylsulfonyl)-7-octynamide], in the experiment on Culex pipiens pallens, the pest or weed control at 3.5 ppm was not below 90%. Besides, the values for the pest or weed control at 500 ppm with Blattalla germanica and with Musca domestica were 100% and not below 70%, respectively. For the same compound, the pest or weed control at 100 mg/m2 in experiment [1] was determined as 90%.

For the compound `C#CCC(C)(C)CCC(C#N)S(=O)(=O)CCC(F)(F)F` (stereo not drawn) [present compound (33), 5,5-dimethyl-2-(3,3,3-trifluoropropylsulfonyl)-7-octynenitrile], in the experiment with Culex pipiens pallens, the pest or weed control at 3.5 ppm was not below 90%. Further, the values for the pest or weed control at 500 ppm in the experiment with Blattalla germanica and in the experiment with Musca domestica were 100% and not below 70%, respectively. In addition, in experiment [1], the pest or weed control at 100 mg/m2 worked out at 90%.

As to `C/C(=C\CC(C#N)S(=O)(=O)CCC(F)(F)F)C(F)(F)F` (stereo not drawn) [present compound (35), 6,6,6-trifluoro-5-methyl-2-(3,3,3-trifluoropropylsulfonyl)-4-hexenenitrile], the pest or weed control at 3.5 ppm with Culex pipiens pallens is not below 90%. Moreover, the pest or weed control at 500 ppm was 100% in the experiment with Blattalla germanica and not below 70% in the experiment with Musca domestica. Also, in experiment [1], the pest or weed control at 100 mg/m2 is 90%.

As to `C#CCOCCC(C#N)S(=O)(=O)CCC(F)(F)F` (stereo not drawn) [present compound (38), 4-(2-propyonyloxy)-2-(3,3,3-trifluoropropylsulfonyl)butanenitrile], in the experiment with Culex pipiens pallens, the pest or weed control at 3.5 ppm is not below 90%. Also, the pest or weed control at 500 ppm is 100% in the experiment on Blattalla germanica and not below 70% in the experiment on Musca domestica. Besides, in experiment [1], the pest or weed control at 100 mg/m2 is 90%.

Turning to `C#CCOCCC(C)(C#N)S(=O)(=O)CCC(F)(F)F` (stereo not drawn) [present compound (39), 2-methyl-4-(2-propynyloxy)-2-(3,3,3-trifluoropropylsulfonyl)butanenitrile], in the experiment on Culex pipiens pallens, the pest or weed control at 3.5 ppm is not below 90%. Further, the pest or weed control at 500 ppm in the experiment on Blattalla germanica was 100%; in the experiment with Musca domestica it was not below 70%. Moreover, in experiment [1], the pest or weed control at 100 mg/m2 was 90%.
